This note sets out measurements from patent publication US11958861B2, “Spirocyclic lactams as JAK2 V617F inhibitors” (Incyte Corporation, priority 2021, dated 2024).

The target of experiment [1] is T1, catalytic domain (JH1, amino acids 826-1132) of human JAK2 (Homo sapiens, UniProt O60674).
T1 construct: catalytic domain (JH1, amino acids 826-1132) of human JAK2; purchased Carna Biosciences 08-445-20N; host or cells: baculovirus expression system
The experiment can be described thus: JAK2 LanthaScreen JH1 Binding Assay. Particulars: 2 hours at 25° C. In short, it runs like this: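 FLAG-tagged biotinylated JAK2 JH1 (1.5 nM) incubated with compounds, 50 nM fluorescent tracer and 0.5 nM streptavidin-Tb in Tris pH 7.5 buffer with MgCl2, BSA, DTT, 2 h at 25 °C.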
(In TR-FRET formats the signal depends on donor and acceptor labels being close together.)

Experiment [2] addresses T2, catalytic domain (JH1, amino acids 808-1132) of human JAK2 (Homo sapiens, UniProt O60674).
T2 construct: catalytic domain (JH1, amino acids 808-1132) of human JAK2; His (N); purchased BPS Bioscience 40450; host or cells: baculovirus expression system
In words: JAK2 HTRF Enzyme Activity Assay. It is filed as biochemical. The note with it: ATP 30 μM, read-out: ENZ 30UMATP. In a few lines: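 His-tagged JAK2 JH1 from baculovirus, 0.015 nM, incubated with compound, ATP at 30 μM or 1 mM and 500 nM biotinylated peptide, pH 7.5, 60 min at 25° C. HTRF read-out via Eu-anti-phosphotyrosine and streptavidin-APC after EDTA stop; IC50 from four-parameter dose-response fit.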

The target in experiment [3] is T3, pseudo-kinase domain (JH2, amino-acids 536-812) of human Wild Type JAK2 (Homo sapiens, UniProt O60674, F794H/W659A/W777A).
T3 construct: pseudo-kinase domain (JH2, amino-acids 536-812 with 3 surface mutations W659A, W777A, F794H); purchased BPS Bioscience 79463; host or cells: baculovirus expression system
In words: JAK2 LanthaScreen JH2-WT Binding Assay. Particulars: 1 hour at 25° C. In short, it runs like this:
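Biotinylated His-Avi-tagged JAK2 JH2 (0.145 nM), baculovirus-expressed, incubated with compounds, 50 nM fluorescent JH2 tracer and 0.25 nM streptavidin-Tb, 1 h at 25° C in pH 7.5 Tris buffer with MgCl2 and DTT. Non-specific binding defined with 2 mM ATP. TR-FRET read; IC50 from four-parameter fit.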

Experiment [4] deals with T4, pseudo-kinase domain (JH2, amino-acids 536-812) of human V617F mutant JAK2 (Homo sapiens, UniProt O60674, F794H/V617F/W659A/W777A).
T4 construct: pseudo-kinase domain (JH2, amino-acids 536-812 with 3 surface mutations W659A, W777A, F794H); purchased BPS Bioscience 79498; host or cells: baculovirus expression system
The experiment can be described thus: JAK2 LanthaScreen JH2-V617F Binding Assay. The note with it: 1 hour at 25° C. In short, it runs like this: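 Competition of compounds with a fluorescent tracer (50 nM) for the biotinylated domain (0.26 nM), detected via streptavidin-Tb (0.25 nM) after 1 h at 25° C in pH 7.5 Tris buffer containing glycerol, BSA and Brij-35. ATP at 2 mM gave background. IC50 by four-parameter fit.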

Structures can show the parent of a compound that is named as a salt.

T3 sequence (O60674 536-812 W659A/W777A/F794H): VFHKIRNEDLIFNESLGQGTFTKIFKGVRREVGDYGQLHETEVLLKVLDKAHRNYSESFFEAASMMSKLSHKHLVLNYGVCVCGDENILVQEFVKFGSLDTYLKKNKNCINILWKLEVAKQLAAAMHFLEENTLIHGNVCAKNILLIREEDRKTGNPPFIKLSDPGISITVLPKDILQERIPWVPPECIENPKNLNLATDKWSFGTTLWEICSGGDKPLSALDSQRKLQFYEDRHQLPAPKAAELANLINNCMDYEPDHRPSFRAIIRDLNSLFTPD
T4 sequence (O60674 536-812 V617F/W659A/W777A/F794H): as the sequence (O60674 536-812 W659A/W777A/F794H) above, with V82F counted along it
T1 sequence (O60674 826-1132): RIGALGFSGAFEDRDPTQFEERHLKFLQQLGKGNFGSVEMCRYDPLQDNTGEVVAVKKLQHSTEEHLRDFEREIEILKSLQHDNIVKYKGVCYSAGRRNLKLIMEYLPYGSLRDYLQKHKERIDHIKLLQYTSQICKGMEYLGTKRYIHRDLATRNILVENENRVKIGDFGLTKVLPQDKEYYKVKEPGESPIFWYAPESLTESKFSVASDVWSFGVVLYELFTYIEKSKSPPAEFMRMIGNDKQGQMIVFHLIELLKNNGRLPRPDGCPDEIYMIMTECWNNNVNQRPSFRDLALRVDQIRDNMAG
T2 sequence (O60674 808-1132): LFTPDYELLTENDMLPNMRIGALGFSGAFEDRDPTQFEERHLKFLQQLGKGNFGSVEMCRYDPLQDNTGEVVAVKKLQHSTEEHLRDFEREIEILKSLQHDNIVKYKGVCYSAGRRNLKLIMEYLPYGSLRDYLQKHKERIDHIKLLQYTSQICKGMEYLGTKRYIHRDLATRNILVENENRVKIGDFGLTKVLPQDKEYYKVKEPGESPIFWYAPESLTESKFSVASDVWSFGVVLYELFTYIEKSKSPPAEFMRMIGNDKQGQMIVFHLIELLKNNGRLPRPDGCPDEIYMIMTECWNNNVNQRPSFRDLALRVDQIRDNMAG

Turning to `CN1C(=O)C2(CCN(C3(CC#N)CCC3)CC2)c2c1cnc1[nH]c(-c3cn(C)nc3C3CC3)c(-c3ccc4c(cnn4C)c3)c21` [Example 40, 2-(1-(2-(3-Cyclopropyl-1-methyl-1H-pyrazol-4-yl)-6-methyl-1-(1-methyl-1H-indazol-5-yl)-7-oxo-6,7-dihydro-3H-spiro[dipyrrolo[2,3-b:3′,2′-d]pyridine-8,4′-piperidin]-1′-yl)cyclobutyl)acetonitrile, trifluoroacetate salt], the IC50 was over 2500 nM in experiment [1], over 2500 nM in experiment [2], at most 100 nM in experiment [3] and at most 100 nM in experiment [4].

For the compound `CC(=O)N1CCC(n2cc(-c3[nH]c4ncc5c(c4c3-c3ccc4c(cnn4C)c3)C3(CCN(C4(CC#N)CCC4)CC3)C(=O)N5C)cn2)CC1` [Example 41, 2-(1-(2-(1-(1-Acetylpiperidin-4-yl)-1H-pyrazol-4-yl)-6-methyl-1-(1-methyl-1H-indazol-5-yl)-7-oxo-6,7-dihydro-3H-spiro[dipyrrolo[2,3-b:3′,2′-d]pyridine-8-4′-piperidin]-1′-yl)cyclobutyl)acetonitrile, trifluoroacetate salt], the IC50 in experiment [1] was 100 to 500 nM; in experiment [2], at most 100 nM; in experiment [3], at most 100 nM; in experiment [4], at most 100 nM.

Regarding `CN1C(=O)C2(CCN(C3(CC#N)CCC3)CC2)c2c1cnc1[nH]c(-c3ccn(C)c3)c(-c3ccc4c(cnn4C)c3)c21` [Example 42, 2-(1-(6-Methyl-1-(1-methyl-1H-indazol-5-yl)-2-(1-methyl-IH-pyrrol-3-yl)-7-oxo-6,7-dihydro-3H-spiro[dipyrrolo[2,3b:3′,2′-d]pyridine-8,4′-piperidin]-1′-yl)cyclobutyl)acetonitrile, trifluoroacetate salt], the IC50 in experiment [1] was 500 to 1250 nM; in experiment [2], 100 to 500 nM; in experiment [3], at most 100 nM; in experiment [4], at most 100 nM.

For the compound `CN1C(=O)C2(CCN(C3(CC#N)CCC3)CC2)c2c1cnc1[nH]c(-c3cnn4c3CCCC4)c(-c3ccc4c(cnn4C)c3)c21` [Example 43, 2-(1-(6-Methyl-1-(1-methyl-1H-indazol-5-yl)-7-oxo-2-(4,5,6,7-tetrahydropyrazolo[1,5-a]pyridin-3-yl)-6,7-dihydro-3H-spiro[dipyrrolo[2,3-b:3′,2′-d]pyridine-8,4′-piperidin]-1′-yl)cyclobutyl)acetonitrile], the IC50 in experiment [1] was over 2500 nM; in experiment [2], over 2500 nM; in experiment [3], at most 100 nM; in experiment [4] it was at most 100 nM.

On to `COC(C)(C)Cn1cc(-c2[nH]c3ncc4c(c3c2-c2ccc3c(cnn3C)c2)C2(CCN(C3(CC#N)CCC3)CC2)C(=O)N4C)cn1` [Example 44, 2-(1-(2-(1-(2-Methoxy-2-methylpropyl)-1H-pyrazol-4-yl)-6-methyl-1-(1-methyl-1H-indazol-5-yl)-7-oxo-6,7-dihydro-3H-spiro[dipyrrolo[2,3-b:3′,2′-d]pyridine-8,4′-piperidin]-1′-yl)cyclobutyl)acetonitrile, trifluoroacetate salt], for which the IC50 was 100 to 500 nM in experiment [1], 100 to 500 nM in experiment [2], at most 100 nM in experiment [3] and at most 100 nM in experiment [4].

For `O=C(O)C(F)(F)F.[2H]C([2H])([2H])n1ccc2cc(-c3c(-c4cnn(CCOC)c4)[nH]c4ncc5c(c34)C3(CCN(C4(CC#N)CCC4)CC3)C(=O)N5C)ccc21` [Example 46, 2-(1-(2-(1-(2-Methoxyethyl)-1H-pyrazol-4-yl)-6-methyl-1-(1-(methyl-d3)-1H-indol-5-yl)-7-oxo-6,7-dihydro-3H-spiro[dipyrrolo[2,3-b:3′,2′-d]pyridine-8,4′-piperidin]-1′-yl)cyclobutyl)acetonitrile, trifluoroacetate salt], the IC50 in experiment [1] was 500 to 1250 nM; in experiment [2], 500 to 1250 nM; in experiment [3] it was at most 100 nM; in experiment [4], at most 100 nM.

`COc1c(F)cc(-c2c(-c3cnn(CC(C)(C)O)c3)[nH]c3ncc4c(c23)C2(CCN(C3(CC#N)CCC3)CC2)C(=O)N4C)cc1F` [Example 47, 2-(1-(1-(3,5-Difluoro-4-methoxyphenyl)-2-(1-(2-hydroxy-2-methylpropyl)-1H-pyrazol-4-yl)-6-methyl-7-oxo-6,7-dihydro-3H-spiro[dipyrrolo[2,3-b:3′,2′-d]pyridine-8,4′-piperidin]-1′-yl)cyclobutyl)acetonitrile, trifluoroacetate salt]: the IC50 in experiment [1] was over 2500 nM; in experiment [2], over 2500 nM; in experiment [3] it was at most 100 nM; in experiment [4], at most 100 nM.

With `CN1C(=O)C2(CCN(C3(CC#N)CCC3)CC2)c2c1cnc1[nH]c(-c3cnn(CC(C)(C)O)c3)c(-c3cc4cnccc4s3)c21` [Example 48, 2-(1-(2-(1-(2-Hydroxy-2-methylpropyl)-1H-pyrazol-4-yl)-6-methyl-7-oxo-1-(thieno[3,2-c]pyridin-2-yl)-6,7-dihydro-3H-spiro[dipyrrolo[2,3-b:3′,2′-d]pyridine-8,4′-piperidin]-1′-yl)cyclobutyl)acetonitrile, trifluoroacetate salt], the IC50 in experiment [1] was 100 to 500 nM; in experiment [2], 100 to 500 nM; in experiment [3] it was at most 100 nM; in experiment [4], at most 100 nM.

As to `CN1C(=O)C2(CCN(C3(CC#N)CCC3)CC2)c2c1cnc1[nH]c(-c3cnn(CC(C)(C)O)c3)c(-c3ccc(C4CC4)cc3)c21` [Example 49, 2-(1-(1-(4-Cyclopropylphenyl)-2-(1-(2-hydroxy-2-methylpropyl)-1H-pyrazol-4-yl)-6-methyl-7-oxo-6,7-dihydro-3H-spiro[dipyrrolo[2,3-b:3′,2′-d]pyridine-8,4′-piperidin]-1′-yl)cyclobutyl)acetonitrile, trifluoroacetate salt], the IC50 was over 2500 nM in experiment [1], over 2500 nM in experiment [2], at most 100 nM in experiment [3] and at most 100 nM in experiment [4].

In the case of `CN1C(=O)C2(CCN(C3(CC#N)CCC3)CC2)c2c1cnc1[nH]c(-c3cnn(CC(C)(C)O)c3)c(-c3ccc(OC(F)(F)F)cc3)c21` [Example 50, 2-(1-(2-(1-(2-Hydroxy-2-methylpropyl)-1H-pyrazol-4-yl)-6-methyl-7-oxo-1-(4-(trifluoromethoxy)phenyl)-6,7-dihydro-3H-spiro[dipyrrolo[2,3-b:3′,2′-d]pyridine-8,4′-piperidin]-1′-yl)cyclobutyl)acetonitrile, trifluoroacetate salt], the IC50 in experiment [1] is over 2500 nM; in experiment [2] it was over 2500 nM; in experiment [3], at most 100 nM; in experiment [4], at most 100 nM.

On to `CN1C(=O)C2(CCN(C3(CC#N)CCC3)CC2)c2c1cnc1[nH]c(-c3cnn(CC(C)(C)O)c3)c(-c3ccc(C(F)(F)F)cc3)c21` [Example 52, 2-(1-(2-(1-(2-Hydroxy-2-methylpropyl)-1H-pyrazol-4-yl)-6-methyl-7-oxo-1-(4-(trifluoromethyl)phenyl)-6,7-dihydro-3H-spiro[dipyrrolo[2,3-b:3′,2′-d]pyridine-8,4′-piperidin]-1′-yl)cyclobutyl)acetonitrile, trifluoroacetate salt], for which the IC50 in experiment [1] was over 2500 nM; in experiment [2], over 2500 nM; in experiment [3], at most 100 nM; in experiment [4], at most 100 nM.

Turning to `CCS(=O)(=O)N1CC2(C1)CC1(C2)C(=O)N(C)c2cnc3[nH]c(-c4cnn(C(C)C)c4)c(-c4ccc5c(cnn5C)c4)c3c21` [Example 54, 1-(Ethylsulfonyl)-2″-(1-isopropyl-1H-pyrazol-4-yl)-6″-methyl-1″-(1-methyl-1H-indazol-5-yl)-3″,6″-dihydro-7″H-dispiro[azetidine-3,1′-cyclobutane-3′,8″-dipyrrolo[2,3-b:3′,2′-d]pyridin]-7″-one, trifluoroacetate salt], the IC50 in experiment [1] was 500 to 1250 nM; in experiment [2], 500 to 1250 nM; in experiment [3], at most 100 nM; in experiment [4], at most 100 nM.

For the compound `CN1C(=O)C2(Cc3ccccc3C2)c2c1cnc1[nH]c(-c3ccc(CN4CCC(S(C)(=O)=O)CC4)cc3)cc21` [Example 57, 6-Methyl-2-(4-((4-(methylsulfonyl)piperidin-1-yl)methyl)phenyl)-1′,3,3′,6-tetrahydro-7H-spiro[dipyrrolo[2,3-b:3′,2′-d]pyridine-8,2′-inden]-7-one], the IC50 in experiment [1] is over 2500 nM; in experiment [2], over 2500 nM; in experiment [3], 1250 to 2500 nM; in experiment [4], over 2500 nM.
